Broadly, the bioavailability is dose-corrected exposure relative to a reference, in per cent. Low readings indicate little systemic uptake, high ones much systemic uptake. The term half-life denotes the time needed for the level to fall by half in the phase considered. Lower therefore signals fast loss. Usually AUC(0-t) stands for the area under the concentration-time curve up to a stated or last time point. Lower therefore signals low exposure. Broadly, the Tmax is the time at which the peak concentration occurs. Usually Papp A→B stands for the apparent permeability from the apical to the basolateral side of a cell layer. High values mean fast passage, low ones slow passage. In general, clearance refers to the rate of elimination divided by the concentration.

The nature of data set [1]: in vivo. The settings on record: Sprague-Dawley, rat, plasma, po, 10 mg/kg.
Data set [2] can be described thus: Volume of distribution at steady state in Sprague-Dawley rat plasma at 1 mg/kg, iv administered as single bolus dose by LC-MS/MS analysis. The class given is ADME, organism-based. The settings on record: read-out: Vdss.
The nature of data set [3]: Half life in Sprague-Dawley rat plasma at 1 mg/kg, iv administered as single bolus dose by LC-MS/MS analysis. It counts as ADME, organism-based.
Data set [4] can be described thus: in vivo. The following applies: Sprague-Dawley, rat, plasma, po, 10 mg/kg. The source holds these as a separate data set.
A short description of data set [5]: AUC (0 to last) in Sprague-Dawley rat plasma at 1 mg/kg, iv administered as single bolus dose by LC-MS/MS analysis. More on the design: dose 1 mg/kg, route intravenous, time 0 - last. The class given is ADME, organism-based.
Data set [6] is described as follows: in vivo. The following applies: Sprague-Dawley, rat, plasma, po, 10 mg/kg. The source holds these as a separate data set.
Data set [7] can be described thus: Ratio of drug level in brain to plasma in Sprague-Dawley rat at 1 mg/kg, iv or 10 mg/kg, po by LC-MS/MS analysis. It counts as ADME, organism-based. The following applies: read-out: BPR.
The next data set is described as follows: in vitro. The following applies: human, Caco-2.
A short description of data set [8]: Clearance in Sprague-Dawley rat at 1 mg/kg, iv administered as single bolus dose by LC-MS/MS analysis. The class given is ADME, organism-based. The following applies: in vivo.
The nature of data set [9]: Ratio of drug level in brain to plasma in Sprague-Dawley rat at 0.5 mg/kg, iv or 2 mg/kg, po by LC-MS/MS analysis. The settings on record: read-out: BPR. It counts as ADME, organism-based.
The nature of data set [10]: in vivo. The following applies: Sprague-Dawley, rat, iv, 0.5 mg/kg.
Data set [11] is described as follows: in vivo. The settings on record: Sprague-Dawley, rat, plasma, po, 2 mg/kg.
Data set [12] in a line: in vivo. The following applies: Sprague-Dawley, rat, plasma, iv, 0.5 mg/kg.
The nature of data set [13]: in vivo. The following applies: Sprague-Dawley, rat, plasma, po, 2 mg/kg. This is another data set of the same source.
The nature of data set [14]: in vivo. The following applies: Sprague-Dawley, rat, plasma, iv, 0.5 mg/kg. The source holds these as a separate data set.
The nature of data set [15]: in vivo. The following applies: Sprague-Dawley, rat, plasma, po, 2 mg/kg. The source holds these as a separate data set.
Data set [16] is described as follows: in vivo. The settings on record: Sprague-Dawley, rat, iv, 0.5 mg/kg. This is another data set of the same source.
Data set [17] concerns Plasma. In words: Free plasma concentration in Sprague-Dawley rat at 100 mg/kg administered via oral gavage by LC-MS/MS method. The class given is ADME, organism-based. The following applies: in vivo.
Data set [18] concerns Plasma. In words: Plasma concentration in Sprague-Dawley rat at 100 mg/kg administered via oral gavage by LC-MS/MS method. It counts as ADME, organism-based. The following applies: in vivo.

For the compound `O=S(=O)(Nc1cscn1)c1cc(Cl)c(OCC2NCCC=C2c2ccc(F)cc2)cc1F` (stereo unspecified), the bioavailability in the data set “in vivo [1]” is 64.8%. Further, the Vd in [2] is 0.6 L/kg. For the same compound, the half-life in data set [3] was 2.7 h. Besides, the AUC(0-t) is 41.8 µM·h in “in vivo [4]” and 3.56 µM·h in [5]. Moreover, in the data set “in vivo [6]”, the Tmax was 3.8 h. Also, the Kp in data set [7] came out at 0.017. Further, the Papp A→B in the data set “in vitro” stood at 3.2 ×10⁻⁶ cm/s. Besides, the clearance in data set [8] was determined as 4.5 mL/min/kg.
`N[C@@H]1CCC=C(c2ccc(F)cc2)[C@H]1COc1cc(F)c(S(=O)(=O)Nc2cscn2)cc1Cl`: the Kp in data set [9] was determined as 0.26. Moreover, the exposure AUC(0-t) in the data set “in vivo [10]” is 0.34 µM·h; in the data set “in vivo [13]”, 0.25 µM·h. Moreover, the bioavailability in the data set “in vivo [11]” is 18.4%. The half-life in “in vivo [12]” is 3.6 h. The compound also displayed a Vd in the data set “in vivo [14]” of 8.9 L/kg. Further, the Tmax in the data set “in vivo [15]” came out at 1.7 h. In the data set “in vivo [16]”, this compound returned a clearance of 39.2 mL/min/kg.
Take `O=S(=O)(Nc1cscn1)c1cc(Cl)c(OC[C@H]2NCCC=C2c2ccc(F)cc2)cc1F`: the “Cp(f)” value in the data set with Plasma [17] was 0.41 µM. Further, the concentration in the data set on Plasma [18] is 82.1 µM.
On the same counts, the results for `Nc1[nH]ncc1-c1cc(Cl)ccc1Oc1cc(F)c(S(=O)(=O)Nc2cscn2)cc1Cl` [PF-05089771] are 0.279 µM and 55.8 µM.
